Experimental findings from PubChem BioAssay AID1963837 (Molecular Pharmacology Branch, DTP, NCI, 2024) are described below.

Structures are written as SMILES.

By viability, T/C is commonly meant the ratio of treated to control.
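Further: spheroids exposed to drugs for seven days before readout.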

The first experiment relates to 843126-344-R-J1-PDC complex spheroid viability. Briefly: Anticancer human tumor 843126-344-R-J1-PDC patient-derived melanoma cell line growth inhibition [POLQ]. To be noted: second compound 10 µM; first compound 0.0316 µM; hits give low values. The method, boiled down:
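Patient-derived tumour cells were co-cultured with HUVEC and mesenchymal stem cells as multicellular spheroids at 37 °C. They were treated with POLQ inhibitors (novobiocin, ART-558, RP6685) alone or combined with other agents. Top concentrations were at or near clinical Cmax (otherwise 10 microM; SN-38 at 1 microM), decreasing in half-log steps.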
For the compound `COc1cccc2c1C(=O)c1c(O)c3c(c(O)c1C2=O)CC(O)(C(=O)CO)CC3OC1CC(N)C(O)C(C)O1` (stereo unspecified) + Cc1cccc(N(C)C(=O)C2C(O)CCN2c2nc(C)cc(C(F)(F)F)c2C#N)c1, the viability, T/C is 68.8%.

Still in this experiment, the particulars now being: second compound 10 µM; first compound 0.1 µM; hits give low values.
Take `CC1COCCN1c1cc(C2(O)CC3CCC(C2)O3)c2cnn(-c3ccn[nH]3)c2n1` (stereo unspecified) + COC1C(OC(N)=O)C(O)C(Oc2ccc3c(O)c(NC(=O)c4ccc(O)c(CC=C(C)C)c4)c(=O)oc3c2C)OC1(C)C: the viability, T/C was 66.9%.

Regarding `O=C(Nc1ccc(O)c(NS(=O)(=O)c2ccc(F)cc2)c1)c1ccc(-c2ccccc2)cc1` + COC1C(OC(N)=O)C(O)C(Oc2ccc3c(O)c(NC(=O)c4ccc(O)c(CC=C(C)C)c4)c(=O)oc3c2C)OC1(C)C, the viability, T/C was 78.8%.

For `COc1cc(C2c3cc4c(cc3C(OC3OC5COC(C)OC5C(O)C3O)C3COC(=O)C23)OCO4)cc(OC)c1O` (stereo unspecified) + Cc1cccc(N(C)C(=O)C2C(O)CCN2c2nc(C)cc(C(F)(F)F)c2C#N)c1, the viability, T/C was 83.1%.

As to `COc1cccc2c1C(=O)c1c(O)c3c(c(O)c1C2=O)CC(O)(C(=O)CO)CC3OC1CC(N)C(O)C(C)O1` (stereo unspecified) + Cc1cccc(N(C)C(=O)C2C(O)CCN2c2nc(C)cc(C(F)(F)F)c2C#N)c1, the viability, T/C was 63.3%.

Staying with this experiment, now noted: second compound 10 µM; first compound 0.316 µM; hits give low values.
Take `CC1COCCN1c1cc(C2(O)CC3CCC(C2)O3)c2cnn(-c3ccn[nH]3)c2n1` (stereo unspecified) + COC1C(OC(N)=O)C(O)C(Oc2ccc3c(O)c(NC(=O)c4ccc(O)c(CC=C(C)C)c4)c(=O)oc3c2C)OC1(C)C: the viability, T/C is 54.7%.

With `O=C(Nc1ccc(O)c(NS(=O)(=O)c2ccc(F)cc2)c1)c1ccc(-c2ccccc2)cc1` + COC1C(OC(N)=O)C(O)C(Oc2ccc3c(O)c(NC(=O)c4ccc(O)c(CC=C(C)C)c4)c(=O)oc3c2C)OC1(C)C, the viability, T/C was 97.1%.

For the compound `COc1cc(C2c3cc4c(cc3C(OC3OC5COC(C)OC5C(O)C3O)C3COC(=O)C23)OCO4)cc(OC)c1O` (stereo unspecified) + Cc1cccc(N(C)C(=O)C2C(O)CCN2c2nc(C)cc(C(F)(F)F)c2C#N)c1, the viability, T/C is 79%.

For the compound `COc1cccc2c1C(=O)c1c(O)c3c(c(O)c1C2=O)CC(O)(C(=O)CO)CC3OC1CC(N)C(O)C(C)O1` (stereo unspecified) + Cc1cccc(N(C)C(=O)C2C(O)CCN2c2nc(C)cc(C(F)(F)F)c2C#N)c1, the viability, T/C is 26.3%.

The experiment is the same for the next values; noted with them: second compound 10 µM; first compound 1 µM; hits give low values.
On to `CC1COCCN1c1cc(C2(O)CC3CCC(C2)O3)c2cnn(-c3ccn[nH]3)c2n1` (stereo unspecified) + COC1C(OC(N)=O)C(O)C(Oc2ccc3c(O)c(NC(=O)c4ccc(O)c(CC=C(C)C)c4)c(=O)oc3c2C)OC1(C)C, for which the viability, T/C is 41.6%.

For the compound `O=C(Nc1ccc(O)c(NS(=O)(=O)c2ccc(F)cc2)c1)c1ccc(-c2ccccc2)cc1` + COC1C(OC(N)=O)C(O)C(Oc2ccc3c(O)c(NC(=O)c4ccc(O)c(CC=C(C)C)c4)c(=O)oc3c2C)OC1(C)C, the viability, T/C is 94.5%.

As for `COc1cc(C2c3cc4c(cc3C(OC3OC5COC(C)OC5C(O)C3O)C3COC(=O)C23)OCO4)cc(OC)c1O` (stereo unspecified) + Cc1cccc(N(C)C(=O)C2C(O)CCN2c2nc(C)cc(C(F)(F)F)c2C#N)c1, the viability, T/C is 74%.

As to `COc1cccc2c1C(=O)c1c(O)c3c(c(O)c1C2=O)CC(O)(C(=O)CO)CC3OC1CC(N)C(O)C(C)O1` (stereo unspecified) + Cc1cccc(N(C)C(=O)C2C(O)CCN2c2nc(C)cc(C(F)(F)F)c2C#N)c1, the viability, T/C was 4.4%.

Staying with this experiment, now noted: second compound 10 µM; first compound 3.16 µM; hits give low values.
For `CC1COCCN1c1cc(C2(O)CC3CCC(C2)O3)c2cnn(-c3ccn[nH]3)c2n1` (stereo unspecified) + COC1C(OC(N)=O)C(O)C(Oc2ccc3c(O)c(NC(=O)c4ccc(O)c(CC=C(C)C)c4)c(=O)oc3c2C)OC1(C)C, the viability, T/C was 25.6%.

On to `O=C(Nc1ccc(O)c(NS(=O)(=O)c2ccc(F)cc2)c1)c1ccc(-c2ccccc2)cc1` + COC1C(OC(N)=O)C(O)C(Oc2ccc3c(O)c(NC(=O)c4ccc(O)c(CC=C(C)C)c4)c(=O)oc3c2C)OC1(C)C, for which the viability, T/C is 86.8%.

For the compound `COc1cc(C2c3cc4c(cc3C(OC3OC5COC(C)OC5C(O)C3O)C3COC(=O)C23)OCO4)cc(OC)c1O` (stereo unspecified) + Cc1cccc(N(C)C(=O)C2C(O)CCN2c2nc(C)cc(C(F)(F)F)c2C#N)c1, the viability, T/C is 50.6%.

On to `COc1cccc2c1C(=O)c1c(O)c3c(c(O)c1C2=O)CC(O)(C(=O)CO)CC3OC1CC(N)C(O)C(C)O1` (stereo unspecified) + Cc1cccc(N(C)C(=O)C2C(O)CCN2c2nc(C)cc(C(F)(F)F)c2C#N)c1, for which the viability, T/C is 3.99%.

The experiment is the same for the next values; noted with them: second compound 10 µM; first compound 10 µM; hits give low values.
Turning to `CC1COCCN1c1cc(C2(O)CC3CCC(C2)O3)c2cnn(-c3ccn[nH]3)c2n1` (stereo unspecified) + COC1C(OC(N)=O)C(O)C(Oc2ccc3c(O)c(NC(=O)c4ccc(O)c(CC=C(C)C)c4)c(=O)oc3c2C)OC1(C)C, the viability, T/C was 11.7%.

As for `O=C(Nc1ccc(O)c(NS(=O)(=O)c2ccc(F)cc2)c1)c1ccc(-c2ccccc2)cc1` + COC1C(OC(N)=O)C(O)C(Oc2ccc3c(O)c(NC(=O)c4ccc(O)c(CC=C(C)C)c4)c(=O)oc3c2C)OC1(C)C, the viability, T/C was 79.7%.

In the case of `COc1cc(C2c3cc4c(cc3C(OC3OC5COC(C)OC5C(O)C3O)C3COC(=O)C23)OCO4)cc(OC)c1O` (stereo unspecified) + Cc1cccc(N(C)C(=O)C2C(O)CCN2c2nc(C)cc(C(F)(F)F)c2C#N)c1, the viability, T/C is 44.8%.

Consider `COc1cccc2c1C(=O)c1c(O)c3c(c(O)c1C2=O)CC(O)(C(=O)CO)CC3OC1CC(N)C(O)C(C)O1` (stereo unspecified) + Cc1cccc(N(C)C(=O)C2C(O)CCN2c2nc(C)cc(C(F)(F)F)c2C#N)c1, for which the viability, T/C is 3.14%.
